Test results taken from patent US20080107623A1, “Inhibitors of Hepatitis C Virus” (Bristol-Myers Squibb Company, priority 2006, published 2008).
pIC50: −log10 of the molar value.

Columns and labels:
[1] = biological target: T1, HCV NS3/4A protease complex, H77 strain (Hepatitis C virus genotype 1a, UniProt P27958, C1454S/C1711G); experiment: FRET peptide assay to monitor HCV NS3/4A proteolytic activity (H77 strain); format: biochemical, HCV genotype 1a; conditions: read-out: IC50 against NS3/4A H77 strain
T1 construct: recombinant HCV NS3/4A protease complex (amino acids 1027 to 1711) for these strains; made in house; host or cells: Escherichia coli BL21 (DE3), pET21b
T1 sequence (P27958 1027-1711 C1454S/C1711G, one chain of several): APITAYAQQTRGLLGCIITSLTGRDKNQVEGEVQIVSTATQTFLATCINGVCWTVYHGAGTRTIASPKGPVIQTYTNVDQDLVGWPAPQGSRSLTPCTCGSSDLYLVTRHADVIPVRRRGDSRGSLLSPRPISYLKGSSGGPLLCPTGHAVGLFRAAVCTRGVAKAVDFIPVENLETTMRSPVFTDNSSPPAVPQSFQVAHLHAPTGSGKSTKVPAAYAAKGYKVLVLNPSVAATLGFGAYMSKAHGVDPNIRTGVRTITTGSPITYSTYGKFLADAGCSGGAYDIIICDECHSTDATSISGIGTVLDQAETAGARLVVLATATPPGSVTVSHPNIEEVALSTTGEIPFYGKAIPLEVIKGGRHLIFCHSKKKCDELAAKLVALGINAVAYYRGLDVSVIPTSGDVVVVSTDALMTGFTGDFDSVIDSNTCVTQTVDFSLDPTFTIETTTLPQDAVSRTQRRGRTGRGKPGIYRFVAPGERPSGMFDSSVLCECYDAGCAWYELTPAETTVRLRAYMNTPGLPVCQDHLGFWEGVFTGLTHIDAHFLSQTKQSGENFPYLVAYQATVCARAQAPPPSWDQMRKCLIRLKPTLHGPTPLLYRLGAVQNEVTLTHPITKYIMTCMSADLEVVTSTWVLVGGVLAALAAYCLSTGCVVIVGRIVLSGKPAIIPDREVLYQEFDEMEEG
Text: HCV NS3 protease complexes, derived from the BMS strain, H77 strain or J4L6S strain, were generated, as described below. These purified recombinant proteins were generated for use in a homogeneous assay (see below) to provide an indication of how effective compounds of the present disclosure would be in inhibiting HCV NS3 proteolytic activity.
The H77 and J4L6S strains were used for production of recombinant NS3/4A protease complexes. DNA encoding the recombinant HCV NS3/4A protease complex (amino acids 1027 to 1711) for these strains were manipulated as described by P. Gallinari et al. (see Gallinari P, Paolini C, Brennan D, Nardi C, Steinkuhler C, De Francesco R. Biochemistry. 38(17):5620-32, (1999)). Briefly, a three-lysine solubilizing tail was added at the 3′-end of the NS4A coding region. The cysteine in the P1 position of the NS4A-NS4B cleavage site (amino acid 1711) was changed to a glycine to avoid the proteolytic cleavage of the lysine tag. Furthermore, a cysteine to serine mutation was introduced by PCR at amino acid position 1454 to prevent the autolytic cleavage in the NS3 helicase domain. […]

[2] = biological target: T2, human neutrophil elastase (HNE) (Homo sapiens, UniProt P08246); experiment: Specificity assay, elastase (pNA substrate); format: biochemical; conditions: read-out: HLE activity in the specificity assay (IC50)
T2 construct: purchased Sigma or EMDbiosciences
T2 sequence (P08246 30-267): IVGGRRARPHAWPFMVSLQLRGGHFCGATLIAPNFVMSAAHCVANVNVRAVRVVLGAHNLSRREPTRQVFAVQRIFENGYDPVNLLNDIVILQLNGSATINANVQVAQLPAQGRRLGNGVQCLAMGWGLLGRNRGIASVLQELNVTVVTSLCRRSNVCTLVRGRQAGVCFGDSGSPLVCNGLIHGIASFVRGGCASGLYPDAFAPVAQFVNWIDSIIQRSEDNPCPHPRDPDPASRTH
Description: The specificities of compounds of the present disclosure were determined against a variety of serine proteases: human neutrophil elastase (HNE), porcine pancreatic elastase (PPE) and human pancreatic chymotrypsin and one cysteine protease: human liver cathepsin B. In all cases, a 96-well plate format protocol using colorimetric p-nitroaniline (pNA) substrate or fluorometric Amino-Methyl-Coumarin (AMC) substrate, specific for each enzyme was used as described previously (PCT Patent Application No. WO 00/09543) with some modifications. All enzymes were purchased from Sigma or EMDbiosciences while the substrates were from Bachem.
Each pNA assay included a 2 h enzyme-inhibitor pre-incubation at room temperature followed by addition of substrate and hydrolysis to ˜15% conversion as measured on a Spectramax Pro microplate reader. The cathepsin B assay was initiated by adding substrate to a 10 min enzyme-inhibitor pre-incubation at room temperature, and the assay plate measured immediately using the Cytofluor Series 4000. Compound concentrations varied from 100 to 0.4 μM depending on their potency.
50 mM Tris(hydroxymethyl)aminomethane hydrochloride (Tris-HCl) pH 8, 0.5 M Sodium Sulfate (Na2SO4), 50 mM NaCl, 0.1 mM EDTA, 3% DMSO, 0.01% Tween-20 with: […]
The percentage of inhibition was calculated using the formula: [1−((UVinh−UVblank)/(UVctl−UVblank))]×100 […]

COc1c(O[C@@H]2C[C@H]3C(=O)N[C@]4(C(=O)NS(=O)(=O)C5CC5)C[C@H]4/C=C\CCCCC[C@H](NC(=O)OC(C)(C)C)C(=O)N3C2)ccc2c(Cl)nccc12 [Compound 3]
pIC50 [1]: 9.22 | pIC50 [2]: < 4.60
